The values that follow come from ChEMBL document CHEMBL1201862, “PubChem BioAssay data set” (2004).

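Values below derive from 48-hour exposures of cells grown in 96-well plates, with endpoints linearly interpolated between the two concentrations bracketing the appropriate inhibition level. The concentration for 50% growth inhibition is given as GI50.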 Calls of active or inactive are those of the source. No stated cut-off is given here; in the data, active = GI50 up to about 1.1 µM and inactive = higher.

Some test systems named below: COLO 205; DU-145; HCT-116; IGROV-1; KM12; LOX IMVI; M14; MOLT-4; NCI-H460; NCI-H522; NCI/ADR-RES; OVCAR-4; OVCAR-8; RPMI-8226; SF-268; SK-MEL-28; SN12C; SW-620; TK-10; U-251.
What all share (test): DTP human tumour cell line panel, 48 h

Regarding `Oc1ccc2oc3c(O)c4ccccc4cc3c2c1`, the GI50 is 10.6 µM (inactive) with COLO 205; 3.27 µM (inactive) in the assay on DU-145; 0.296 µM (active) with HCT-116; 0.851 µM (active) in the assay on IGROV-1; 2.22 µM (inactive) with KM12; 4.08 µM (inactive) in the assay with LOX IMVI. For the same molecule, the GI50 with M14 was 3.49 µM (inactive); in the assay on MOLT-4 it was 1.07 µM (active); in the assay with NCI-H460, 23.5 µM (inactive); in the assay on NCI-H522 it was 1.01 µM (active); in the assay with NCI/ADR-RES, 3.03 µM (inactive); with OVCAR-4, 1.93 µM (inactive). The GI50 in the assay with OVCAR-8 is 4.56 µM (inactive); with RPMI-8226, 1.31 µM (inactive); in the assay on SF-268, 5.87 µM (inactive); in the assay with SK-MEL-28, 7.24 µM (inactive); in the assay with SN12C it was 2.36 µM (inactive); in the assay with SW-620 it was 0.69 µM (active). The GI50 was 4.75 µM (inactive) in the assay on TK-10 and 4.86 µM (inactive) in the assay with U-251.

Regarding `CC/C(=N\NC(=O)c1cccnc1)c1ccc2c(c1)OCCO2`, the GI50 is > 100 µM (inactive) in the assay with COLO 205; > 100 µM (inactive) in the assay with DU-145; > 100 µM (inactive) with HCT-116; > 100 µM (inactive) with IGROV-1; 96.6 µM (inactive) in the assay on KM12; > 100 µM (inactive) in the assay on LOX IMVI. Further, the GI50 in the assay on M14 is > 100 µM (inactive); in the assay on MOLT-4, > 100 µM (inactive); with NCI-H460, > 100 µM (inactive); with NCI-H522, 29.1 µM (inactive); with NCI/ADR-RES, > 100 µM (inactive); in the assay with OVCAR-4, > 100 µM (inactive). Also, the GI50 in the assay on OVCAR-8, in the assay on RPMI-8226, in the assay on SF-268, with SK-MEL-28, in the assay on SN12C and in the assay on SW-620 was > 100 µM (inactive) in each case. Further, the GI50 with TK-10 and in the assay with U-251 was > 100 µM (inactive) in each case.

`c1ccc2c(c1)Nc1nc3nonc3nc1N2`: the GI50 in the assay with COLO 205, in the assay on DU-145, in the assay on HCT-116, in the assay on IGROV-1, with KM12 and with LOX IMVI was > 100 µM (inactive) throughout. The GI50 is > 100 µM (inactive) with M14; > 100 µM (inactive) in the assay with MOLT-4; > 100 µM (inactive) in the assay on NCI-H460; > 100 µM (inactive) in the assay with NCI-H522; > 100 µM (inactive) with NCI/ADR-RES; 62.5 µM (inactive) in the assay on OVCAR-4. Moreover, the GI50 with OVCAR-8, with RPMI-8226, in the assay with SF-268, with SK-MEL-28, in the assay on SN12C and in the assay with SW-620 was > 100 µM (inactive) each time. For the same molecule, the GI50 in the assay with TK-10 and in the assay on U-251 was > 100 µM (inactive) each time.

As for `COC(=O)/C=C\C(C#N)(C#N)/N=C/c1ccc(Br)s1`, the GI50 in the assay on COLO 205 is 2.31 µM (inactive); with DU-145 it was 10.7 µM (inactive); in the assay with HCT-116, 4.89 µM (inactive); with IGROV-1, 14.9 µM (inactive); in the assay with KM12, 16.3 µM (inactive); in the assay with LOX IMVI it was 2.16 µM (inactive). Moreover, the GI50 is 3.1 µM (inactive) with M14; 2.07 µM (inactive) in the assay on MOLT-4; 20.8 µM (inactive) in the assay with NCI-H460; 1.07 µM (active) with NCI-H522; 18.6 µM (inactive) in the assay on NCI/ADR-RES; 6.61 µM (inactive) in the assay on OVCAR-4. For the same molecule, the GI50 is 3.98 µM (inactive) in the assay with OVCAR-8; 2.32 µM (inactive) in the assay on RPMI-8226; 18.5 µM (inactive) in the assay with SF-268; 16.1 µM (inactive) in the assay with SK-MEL-28; 15.2 µM (inactive) in the assay with SN12C; 2.07 µM (inactive) in the assay with SW-620. In addition, the figures for the GI50 in the assay with TK-10 and with U-251 were 2.38 µM (inactive) and 16 µM (inactive), respectively.

As to `COc1ccc2c(c1)CCc1c-2[nH]c2ccc(OC)cc12`, the GI50 with COLO 205, in the assay with DU-145, in the assay on HCT-116, with IGROV-1, with KM12 and in the assay with LOX IMVI was > 100 µM (inactive) in each case. In addition, the GI50 in the assay on M14, in the assay on MOLT-4, in the assay with NCI-H460, in the assay with NCI-H522, with NCI/ADR-RES and in the assay with OVCAR-4 was > 100 µM (inactive) in each case. Further, the GI50 in the assay with OVCAR-8, with RPMI-8226, in the assay with SF-268, in the assay on SK-MEL-28, in the assay on SN12C and in the assay on SW-620 was > 100 µM (inactive) throughout. Besides, the GI50 in the assay with TK-10 and in the assay with U-251 was > 100 µM (inactive) each time.

Turning to `COc1cc(CC(C)N)ccc1O` (stereo not given), the GI50 in the assay with COLO 205, in the assay with DU-145, with HCT-116, in the assay with IGROV-1, in the assay with KM12 and in the assay on LOX IMVI was > 100 µM (inactive) in each case. For the same molecule, the GI50 in the assay on M14, with MOLT-4, in the assay with NCI-H460, in the assay on NCI-H522, with NCI/ADR-RES and with OVCAR-4 was > 100 µM (inactive) in each case. In addition, the GI50 in the assay on OVCAR-8, in the assay with RPMI-8226, with SF-268, in the assay on SK-MEL-28, with SN12C and in the assay on SW-620 was > 100 µM (inactive) each time. For the same molecule, the GI50 in the assay with TK-10 and with U-251 was > 100 µM (inactive) each time.

With `CCOC1NC(/N=C/c2ccc(OC)cc2)=C(C#N)C1C#N` (stereo not given), the GI50 with COLO 205 is 75.3 µM (inactive); in the assay on DU-145, > 100 µM (inactive); with HCT-116, 63.1 µM (inactive); in the assay on IGROV-1, > 100 µM (inactive); in the assay with KM12, 64.6 µM (inactive); in the assay with LOX IMVI, 44.6 µM (inactive). Besides, the GI50 in the assay with M14 was > 100 µM (inactive); in the assay on MOLT-4, 92 µM (inactive); in the assay with NCI-H460, > 100 µM (inactive); with NCI-H522, 19.3 µM (inactive); in the assay on NCI/ADR-RES it was > 100 µM (inactive); in the assay with OVCAR-4 it was 18.4 µM (inactive). The GI50 in the assay with OVCAR-8 was > 100 µM (inactive); with RPMI-8226, 46.7 µM (inactive); in the assay on SF-268, 97.5 µM (inactive); in the assay on SK-MEL-28 it was > 100 µM (inactive); in the assay with SN12C it was > 100 µM (inactive); in the assay with SW-620, 50.9 µM (inactive). The GI50 in the assay on TK-10 and with U-251 was > 100 µM (inactive) in each case.

As to `COc1ccc(-c2nc(-c3cnccn3)n(COCCO)n2)cc1`, the GI50 in the assay on COLO 205, with DU-145, with HCT-116, with IGROV-1, in the assay on KM12 and with LOX IMVI was > 100 µM (inactive) each time. The GI50 in the assay on M14, with MOLT-4, in the assay on NCI-H460, in the assay with NCI-H522, in the assay with NCI/ADR-RES and with OVCAR-4 was > 100 µM (inactive) each time. In addition, the GI50 in the assay with OVCAR-8, in the assay on RPMI-8226, with SF-268, in the assay with SK-MEL-28, in the assay on SN12C and in the assay with SW-620 was > 100 µM (inactive) throughout. Moreover, the GI50 in the assay with TK-10 and in the assay on U-251 was > 100 µM (inactive) in each case.

For `N/C(=N\c1ccc(Cl)cc1)NS(=O)(=O)c1ccc(-c2ccccn2)s1`, the GI50 with COLO 205 was 17.4 µM (inactive); in the assay with DU-145, 17 µM (inactive); in the assay with HCT-116, 16.9 µM (inactive); with IGROV-1, 16.1 µM (inactive); with KM12, 29.7 µM (inactive); in the assay with LOX IMVI it was 17.5 µM (inactive). The GI50 is 17.8 µM (inactive) in the assay with M14; 2.41 µM (inactive) in the assay with MOLT-4; 17.7 µM (inactive) in the assay with NCI-H460; 9.27 µM (inactive) in the assay on NCI-H522; 18.1 µM (inactive) in the assay with NCI/ADR-RES; 11.5 µM (inactive) in the assay on OVCAR-4. The GI50 is 19 µM (inactive) in the assay on OVCAR-8; 16.9 µM (inactive) with RPMI-8226; 17.3 µM (inactive) with SF-268; 19.4 µM (inactive) in the assay on SK-MEL-28; 15.5 µM (inactive) in the assay on SN12C; 19.4 µM (inactive) with SW-620. Further, the GI50 with TK-10 is 17.3 µM (inactive); in the assay on U-251 it was 15 µM (inactive).

As a reminder, the GI50 is the concentration that inhibits growth by half.
